Some test systems named below: DLD-1 colon; HOP-18 NSCLC; M19-MEL melanoma; XF 498 CNS; RXF-631 renal; MCF7 breast; P388 leukemia; P388/ADR leukemia; SN12K1 renal.
What all share (test): NCI tumour cell line growth inhibition, 48 h

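In this assay, cells in 96-well plates receive the compound at five concentrations for 48 hours. Endpoints are linearly interpolated between the surrounding concentrations. GI50 = concentration required for 50% inhibition of growth. TGI denotes the concentration required for complete inhibition of growth.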

From PubChem BioAssay (NCI) come the findings set out here.

Turning to `CCOC(=O)CCC(NC(=O)c1ccc(N=Cc2nc3cc(C(F)(F)F)ccc3nc2-c2ccccc2)cc1)C(=O)OCC` (centres undefined), the GI50 in the assay with DLD-1 colon and in the assay on M19-MEL melanoma was above 100 µM each time. Besides, the TGI in the assay on DLD-1 colon is above 100 µM; in the assay on HOP-18 NSCLC, above 100 µM; in the assay with M19-MEL melanoma, above 100 µM; in the assay on XF 498 CNS, 11.7 µM.

Turning to `Cc1cc(Br)cc(C)c1NC(=O)C(=O)CC(=O)c1sc(-n2nc(-c3ccccc3)cc2-c2ccccc2)nc1C`, the TGI in the assay on DLD-1 colon, with HOP-18 NSCLC, in the assay with M19-MEL melanoma and in the assay with RXF-631 renal was above 100 µM in each case.

For the molecule `O=[N+]([O-])c1ccc(-c2ccc(/C=N/n3c(-c4ccc(Cl)cc4)n[nH]c3=S)o2)cc1`, the TGI in the assay on DLD-1 colon is above 100 µM; in the assay with HOP-18 NSCLC, above 100 µM; with M19-MEL melanoma, above 55.8 µM; in the assay on RXF-631 renal, above 55.5 µM; with XF 498 CNS it was 46.6 µM.

As for `N[C@H]1C2C3CC4C5CC(C42)C1(c1ccccc1)C53` (some centres undefined), the TGI in the assay on DLD-1 colon, with HOP-18 NSCLC, in the assay with M19-MEL melanoma and with XF 498 CNS was above 100 µM in each case.

Turning to `O=S(=O)(O)CS(=O)(=O)OCCCl`, the TGI with DLD-1 colon, in the assay with HOP-18 NSCLC, in the assay with M19-MEL melanoma, in the assay with RXF-631 renal and in the assay with XF 498 CNS was above 100 µM each time.

Regarding `CCOC(=O)/C(C1=N[C@H](C(=O)OCC)CS1)=C(\C)O`, the TGI in the assay on DLD-1 colon, in the assay on HOP-18 NSCLC, in the assay on M19-MEL melanoma, with RXF-631 renal and in the assay on XF 498 CNS was above 100 µM each time.

Turning to `CC(=O)Oc1c(C)n(CCCl)ccc1=O`, the TGI in the assay with DLD-1 colon, in the assay with HOP-18 NSCLC, in the assay on M19-MEL melanoma, in the assay with RXF-631 renal and in the assay with XF 498 CNS was above 100 µM each time.

Take `CCOC(=O)C1C=C2O[C@@H]3OC4(CCCCC4)O[C@@H]3C2[C@H]2C(=O)C=CC(=O)[C@@]12C(=O)OC` (some centres undefined): the TGI is 35.1 µM in the assay on DLD-1 colon; 32.4 µM with HOP-18 NSCLC; 31.4 µM in the assay with M19-MEL melanoma; 51.8 µM in the assay with RXF-631 renal; 12.8 µM with XF 498 CNS.

Turning to `CC1=C(C(=O)Nc2ccc([N+](=O)[O-])cc2)C(c2ccco2)C(C(=O)Nc2ccc([N+](=O)[O-])cc2)=C(C)N1`, the TGI in the assay with DLD-1 colon is above 100 µM; in the assay on M19-MEL melanoma, 77.2 µM; in the assay with RXF-631 renal it was above 100 µM; in the assay on XF 498 CNS, above 100 µM.

Turning to `CCCCN(CCCC)C(=O)C(=O)CC(=O)c1ccc(Br)cc1`, the TGI with DLD-1 colon, in the assay with HOP-18 NSCLC, with M19-MEL melanoma and in the assay on XF 498 CNS was above 100 µM throughout.

Turning to `O=C1C2=C(c3ccccc31)C(c1ccc(Cl)cc1)N1C(=O)CCSC1=N2` (centres undefined), the TGI with DLD-1 colon, in the assay with M19-MEL melanoma, in the assay on RXF-631 renal and with XF 498 CNS was above 100 µM throughout.

Consider `O=C(O)CN(c1ccc(Cl)cc1)S(=O)(=O)c1ccccc1`, for which the TGI with DLD-1 colon, in the assay on HOP-18 NSCLC, with M19-MEL melanoma, with RXF-631 renal and with XF 498 CNS was above 100 µM each time.

On to `COC1C=C(Nc2cccc(Cl)c2)C(=O)C1` (centres undefined), for which the TGI in the assay with DLD-1 colon was above 100 µM; in the assay on HOP-18 NSCLC it was 76.2 µM; in the assay on M19-MEL melanoma, above 100 µM; with XF 498 CNS, 77 µM.

For `CC1=C(C(=O)Nc2ccccc2)C(c2ccc3c(c2)OCO3)C(C(=O)Nc2ccccc2)=C(C)N1`, the TGI with DLD-1 colon was above 100 µM; with HOP-18 NSCLC it was above 100 µM; in the assay with M19-MEL melanoma, above 100 µM; with RXF-631 renal, above 100 µM; with XF 498 CNS it was 85.4 µM.

Regarding `Cc1cc(C)nc(NS(=O)(=O)c2ccc(Nc3c4ccccc4nc4c(C(=O)Nc5ccc(S(N)(=O)=O)cc5)cccc34)cc2)n1`, the TGI with DLD-1 colon, in the assay on HOP-18 NSCLC, with M19-MEL melanoma and in the assay on XF 498 CNS was above 100 µM throughout.

As to `COc1c(OC(C)=O)ccc(/C=C2\N=C(C)OC2=O)c1[N+](=O)[O-]`, the TGI with DLD-1 colon, in the assay on HOP-18 NSCLC, in the assay on M19-MEL melanoma and in the assay with RXF-631 renal was above 100 µM in each case.

For the molecule `NC(N)=NS(=O)(=O)c1ccc(NC(=O)c2cccc3c(Nc4ccc(S(=O)(=O)N=C(N)N)cc4)c4ccc(Cl)cc4nc23)cc1`, the TGI in the assay on DLD-1 colon, with HOP-18 NSCLC and in the assay with XF 498 CNS was above 100 µM throughout.

Regarding `O/N=C1/C(=C/c2ccc(F)cc2)CCCC1C(NO)c1ccc(F)cc1` (centres undefined), the TGI was above 100 µM in the assay with DLD-1 colon; 87.3 µM with HOP-18 NSCLC; above 100 µM in the assay on M19-MEL melanoma; above 100 µM in the assay on RXF-631 renal; above 100 µM in the assay on XF 498 CNS.

Consider `Cc1c(NC(=O)C(=O)N=NC(=O)c2ccncc2)c(O)c2ccccc2c1O`, for which the TGI was 31.6 µM with DLD-1 colon, 22.3 µM with HOP-18 NSCLC, 3.23 µM in the assay with M19-MEL melanoma and above 100 µM with RXF-631 renal.

In the case of `CNC(=O)OCc1nc(SC(C)C)n(C)c1COC(=O)NC`, the TGI in the assay with DLD-1 colon, in the assay on HOP-18 NSCLC, with M19-MEL melanoma, in the assay with MCF7 breast, in the assay with P388 leukemia and with P388/ADR leukemia was above 100 µM each time. For the same molecule, in the assay with SN12K1 renal, the TGI was above 100 µM.

Take `CCOC(=O)c1cccc(=O)c(C(=O)OCC)c1`: the TGI in the assay on DLD-1 colon, with M19-MEL melanoma, with RXF-631 renal and in the assay with XF 498 CNS was above 100 µM in each case.

On to `S=c1[nH]nc(COc2ccc(Cl)cc2)o1`, for which the TGI in the assay on DLD-1 colon, in the assay on HOP-18 NSCLC, in the assay with M19-MEL melanoma and with RXF-631 renal was above 100 µM throughout.

`CC(Cl)(/C=C/Cl)C(Cl)/C=C/C(Cl)(CCl)CBr` (centres undefined): the TGI in the assay on DLD-1 colon stood at 12.5 µM; with HOP-18 NSCLC, 11.6 µM; with M19-MEL melanoma, 13.5 µM; in the assay with RXF-631 renal it was 4.05 µM.
